According to ChEMBL document CHEMBL4507269, “Data for DCP probe BAY-386” (2021):

Experiments:
[1] = biological target: Cyclin-dependent kinase 17 (Homo sapiens) (UniProt Q00537); conditions: Compound concentration 1000.0 nM
[2] = biological target: Phosphatidylinositol 5-phosphate 4-kinase type-2 beta (Homo sapiens) (UniProt P78356); conditions: Compound concentration 1000.0 nM
[3] = biological target: Cyclin-dependent kinase 18 (Homo sapiens) (UniProt Q07002); conditions: Compound concentration 1000.0 nM
[4] = biological target: High affinity nerve growth factor receptor (Homo sapiens) (UniProt P04629); conditions: Compound concentration 1000.0 nM
[5] = biological target: Ribosomal protein S6 kinase beta-1 (Homo sapiens) (UniProt P23443); conditions: Compound concentration 1000.0 nM
[6] = biological target: Focal adhesion kinase 1 (Homo sapiens) (UniProt Q05397); conditions: Compound concentration 1000.0 nM
[7] = biological target: MAP/microtubule affinity-regulating kinase 3 (Homo sapiens) (UniProt P27448); conditions: Compound concentration 1000.0 nM
[8] = system: Mast/stem cell growth factor receptor Kit (Homo sapiens), P10721 [D816H]; conditions: Compound concentration 1000.0 nM
[9] = biological target: Dual specificity mitogen-activated protein kinase kinase 3 (Homo sapiens) (UniProt P46734); conditions: Compound concentration 1000.0 nM
[10] = system: Hepatocyte growth factor receptor (Homo sapiens), P08581 [M1250T]; conditions: Compound concentration 1000.0 nM
[11] = biological target: Death-associated protein kinase 3 (Homo sapiens) (UniProt O43293); conditions: Compound concentration 1000.0 nM
[12] = biological target: Cyclin-dependent kinase 16 (Homo sapiens) (UniProt Q00536); conditions: Compound concentration 1000.0 nM
[13] = biological target: Calcium/calmodulin-dependent protein kinase type 1B (Homo sapiens) (UniProt Q6P2M8); conditions: Compound concentration 1000.0 nM
[14] = biological target: Mitogen-activated protein kinase kinase kinase 6 (Homo sapiens) (UniProt O95382); conditions: Compound concentration 1000.0 nM
[15] = biological target: Receptor-type tyrosine-protein kinase FLT3 (Homo sapiens) (UniProt P36888); conditions: Compound concentration 1000.0 nM
[16] = biological target: Serine/threonine-protein kinase OSR1 (Homo sapiens) (UniProt O95747); conditions: Compound concentration 1000.0 nM
[17] = biological target: Fibroblast growth factor receptor 3 (Homo sapiens) (UniProt P22607); conditions: Compound concentration 1000.0 nM
[18] = biological target: Serine/threonine-protein kinase PknB (Mycobacterium tuberculosis) (UniProt P9WI81); conditions: Compound concentration 1000.0 nM
[19] = biological target: Epidermal growth factor receptor (Homo sapiens) (UniProt P00533); conditions: Compound concentration 1000.0 nM
[20] = biological target: Sodium-dependent serotonin transporter (Homo sapiens) (UniProt P31645); conditions: Compound concentration 10.0 uM
[21] = biological target: Cyclin-dependent kinase-like 5 (Homo sapiens) (UniProt O76039); conditions: Compound concentration 1000.0 nM
[22] = biological target: Mitogen-activated protein kinase kinase kinase 11 (Homo sapiens) (UniProt Q16584); conditions: Compound concentration 1000.0 nM
[23] = biological target: Mitogen-activated protein kinase kinase kinase 7 (Homo sapiens) (UniProt O43318); conditions: Compound concentration 1000.0 nM
[24] = biological target: Mast/stem cell growth factor receptor Kit (Homo sapiens) (UniProt P10721); conditions: Compound concentration 1000.0 nM
[25] = biological target: Serine/threonine-protein kinase 35 (Homo sapiens) (UniProt Q8TDR2); conditions: Compound concentration 1000.0 nM
[26] = system: Phosphatidylinositol 4,5-bisphosphate 3-kinase catalytic subunit alpha isoform (Homo sapiens), P42336 [I800L]; conditions: Compound concentration 1000.0 nM
[27] = biological target: Receptor tyrosine-protein kinase erbB-2 (Homo sapiens) (UniProt P04626); conditions: Compound concentration 1000.0 nM
[28] = biological target: Cyclin-dependent kinase 7 (Homo sapiens) (UniProt P50613); conditions: Compound concentration 1000.0 nM
[29] = biological target: Serine/threonine-protein kinase Chk1 (Homo sapiens) (UniProt O14757); conditions: Compound concentration 1000.0 nM
[30] = biological target: Serine/threonine-protein kinase 3 (Homo sapiens) (UniProt Q13188); conditions: Compound concentration 1000.0 nM
[31] = biological target: Tyrosine-protein kinase ITK/TSK (Homo sapiens) (UniProt Q08881); conditions: Compound concentration 1000.0 nM
[32] = biological target: Serine/threonine-protein kinase MRCK gamma (Homo sapiens) (UniProt Q6DT37); conditions: Compound concentration 1000.0 nM
[33] = biological target: Death-associated protein kinase 2 (Homo sapiens) (UniProt Q9UIK4); conditions: Compound concentration 1000.0 nM
[34] = biological target: 5-hydroxytryptamine receptor 2B (Homo sapiens) (UniProt P41595); conditions: Compound concentration 10.0 uM
[35] = biological target: Receptor tyrosine-protein kinase erbB-3 (Homo sapiens) (UniProt P21860); conditions: Compound concentration 1000.0 nM
[36] = biological target: Maternal embryonic leucine zipper kinase (Homo sapiens) (UniProt Q14680); conditions: Compound concentration 1000.0 nM
[37] = biological target: Cyclin-dependent kinase-like 1 (Homo sapiens) (UniProt Q00532); conditions: Compound concentration 1000.0 nM
[38] = biological target: Activated CDC42 kinase 1 (Homo sapiens) (UniProt Q07912); conditions: Compound concentration 1000.0 nM
[39] = biological target: 5-hydroxytryptamine receptor 1D (Homo sapiens) (UniProt P28221); conditions: Compound concentration 10.0 uM
[40] = biological target: Dual specificity protein kinase CLK1 (Homo sapiens) (UniProt P49759); conditions: Compound concentration 1000.0 nM
[41] = system: Proto-oncogene tyrosine-protein kinase receptor Ret (Homo sapiens), P07949 [M918T]; conditions: Compound concentration 1000.0 nM
[42] = system: Tyrosine-protein kinase ABL1 (Homo sapiens), P00519 [F317L]; conditions: Compound concentration 1000.0 nM
[43] = biological target: Myosin light chain kinase family member 4 (Homo sapiens) (UniProt Q86YV6); conditions: Compound concentration 1000.0 nM
[44] = biological target: 3-phosphoinositide-dependent protein kinase 1 (Homo sapiens) (UniProt O15530); conditions: Compound concentration 1000.0 nM
[45] = biological target: Ribosomal protein S6 kinase alpha-4 (Homo sapiens) (UniProt O75676); conditions: Compound concentration 1000.0 nM

Chain of Dual specificity protein kinase CLK1 (Homo sapiens) (P49759 whole entry, looked up): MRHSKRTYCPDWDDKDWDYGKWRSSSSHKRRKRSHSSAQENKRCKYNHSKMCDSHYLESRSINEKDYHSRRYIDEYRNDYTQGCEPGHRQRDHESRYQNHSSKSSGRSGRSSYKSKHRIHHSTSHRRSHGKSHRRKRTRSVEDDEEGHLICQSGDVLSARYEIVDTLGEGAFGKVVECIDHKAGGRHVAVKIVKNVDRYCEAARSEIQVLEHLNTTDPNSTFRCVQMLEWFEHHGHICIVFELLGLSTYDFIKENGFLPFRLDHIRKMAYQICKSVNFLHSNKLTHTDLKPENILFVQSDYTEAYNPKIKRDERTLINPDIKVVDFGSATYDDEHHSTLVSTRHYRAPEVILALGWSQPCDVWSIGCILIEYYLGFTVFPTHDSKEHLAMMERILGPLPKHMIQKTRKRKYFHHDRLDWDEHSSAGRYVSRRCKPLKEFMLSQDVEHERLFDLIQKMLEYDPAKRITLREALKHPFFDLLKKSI
Chain of Cyclin-dependent kinase 18 (Homo sapiens) (Q07002 whole entry): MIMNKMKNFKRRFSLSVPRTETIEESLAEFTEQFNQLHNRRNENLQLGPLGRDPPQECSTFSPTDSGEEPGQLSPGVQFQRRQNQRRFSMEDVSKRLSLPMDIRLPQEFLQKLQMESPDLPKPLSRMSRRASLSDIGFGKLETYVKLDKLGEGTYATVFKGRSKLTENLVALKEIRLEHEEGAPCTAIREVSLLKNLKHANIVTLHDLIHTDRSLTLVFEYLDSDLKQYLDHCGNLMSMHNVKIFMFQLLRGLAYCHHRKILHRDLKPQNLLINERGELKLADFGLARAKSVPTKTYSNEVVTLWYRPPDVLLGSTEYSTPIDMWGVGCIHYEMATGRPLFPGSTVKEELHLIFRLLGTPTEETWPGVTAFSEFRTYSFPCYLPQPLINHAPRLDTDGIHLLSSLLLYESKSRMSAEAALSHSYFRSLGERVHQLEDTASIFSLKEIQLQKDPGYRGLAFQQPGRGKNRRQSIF
Chain of Receptor tyrosine-protein kinase erbB-2 (Homo sapiens) (P04626 whole entry): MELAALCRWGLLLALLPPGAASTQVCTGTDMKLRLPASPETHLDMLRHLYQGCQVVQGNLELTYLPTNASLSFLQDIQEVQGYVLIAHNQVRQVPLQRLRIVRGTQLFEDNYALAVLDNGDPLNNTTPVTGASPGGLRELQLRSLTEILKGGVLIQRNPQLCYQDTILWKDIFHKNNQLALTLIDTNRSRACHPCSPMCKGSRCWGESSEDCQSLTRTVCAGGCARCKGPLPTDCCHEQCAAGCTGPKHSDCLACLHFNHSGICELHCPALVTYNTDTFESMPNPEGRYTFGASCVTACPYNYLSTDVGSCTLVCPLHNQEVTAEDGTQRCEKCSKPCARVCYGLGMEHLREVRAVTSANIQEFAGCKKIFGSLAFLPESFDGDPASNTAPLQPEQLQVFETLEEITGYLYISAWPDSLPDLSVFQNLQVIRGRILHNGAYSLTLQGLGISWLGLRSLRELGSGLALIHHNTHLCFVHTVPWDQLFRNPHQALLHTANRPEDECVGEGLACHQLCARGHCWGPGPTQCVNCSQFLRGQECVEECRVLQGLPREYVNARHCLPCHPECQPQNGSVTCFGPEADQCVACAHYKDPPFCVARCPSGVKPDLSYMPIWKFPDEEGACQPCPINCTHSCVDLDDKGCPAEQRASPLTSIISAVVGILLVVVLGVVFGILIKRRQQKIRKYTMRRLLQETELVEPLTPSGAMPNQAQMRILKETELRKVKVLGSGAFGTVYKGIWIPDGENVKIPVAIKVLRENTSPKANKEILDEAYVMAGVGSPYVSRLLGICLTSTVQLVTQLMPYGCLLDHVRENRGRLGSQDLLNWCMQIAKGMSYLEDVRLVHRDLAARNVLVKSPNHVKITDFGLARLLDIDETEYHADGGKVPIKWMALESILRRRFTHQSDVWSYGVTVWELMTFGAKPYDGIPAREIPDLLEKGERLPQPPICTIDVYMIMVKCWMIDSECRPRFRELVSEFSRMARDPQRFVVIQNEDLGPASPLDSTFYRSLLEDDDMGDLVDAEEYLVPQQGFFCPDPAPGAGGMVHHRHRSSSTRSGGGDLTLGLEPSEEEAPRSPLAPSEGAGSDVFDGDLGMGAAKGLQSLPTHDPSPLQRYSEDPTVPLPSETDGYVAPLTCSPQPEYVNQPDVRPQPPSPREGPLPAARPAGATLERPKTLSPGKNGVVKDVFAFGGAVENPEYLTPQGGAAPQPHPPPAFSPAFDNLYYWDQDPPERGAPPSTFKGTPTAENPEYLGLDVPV
Chain of Cyclin-dependent kinase-like 5 (Homo sapiens) (O76039 whole entry): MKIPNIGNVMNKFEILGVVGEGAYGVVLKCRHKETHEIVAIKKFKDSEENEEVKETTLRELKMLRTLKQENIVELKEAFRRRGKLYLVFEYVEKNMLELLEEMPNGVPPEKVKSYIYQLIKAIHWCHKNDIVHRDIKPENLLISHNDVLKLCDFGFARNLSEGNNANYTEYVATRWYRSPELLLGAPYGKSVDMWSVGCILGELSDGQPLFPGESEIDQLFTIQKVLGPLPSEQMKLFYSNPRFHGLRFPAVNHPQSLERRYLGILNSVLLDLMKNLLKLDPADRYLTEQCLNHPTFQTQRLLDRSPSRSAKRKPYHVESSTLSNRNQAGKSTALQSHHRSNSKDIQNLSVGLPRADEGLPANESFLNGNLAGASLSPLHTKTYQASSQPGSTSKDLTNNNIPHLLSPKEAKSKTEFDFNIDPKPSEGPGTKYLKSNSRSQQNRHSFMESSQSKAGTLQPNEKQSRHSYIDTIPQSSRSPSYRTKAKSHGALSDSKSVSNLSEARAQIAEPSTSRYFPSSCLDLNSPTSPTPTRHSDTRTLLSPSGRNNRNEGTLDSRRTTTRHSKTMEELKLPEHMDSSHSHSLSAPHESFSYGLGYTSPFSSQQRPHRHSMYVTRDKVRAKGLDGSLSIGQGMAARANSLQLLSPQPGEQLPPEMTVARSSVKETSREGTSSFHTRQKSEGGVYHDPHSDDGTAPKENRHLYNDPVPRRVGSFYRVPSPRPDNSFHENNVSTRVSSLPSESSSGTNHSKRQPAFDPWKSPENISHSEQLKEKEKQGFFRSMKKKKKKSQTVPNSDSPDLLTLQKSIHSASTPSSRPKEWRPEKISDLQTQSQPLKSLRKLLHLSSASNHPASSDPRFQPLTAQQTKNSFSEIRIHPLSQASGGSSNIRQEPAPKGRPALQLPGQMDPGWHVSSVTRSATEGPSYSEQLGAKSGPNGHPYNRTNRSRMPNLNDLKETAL
Chain of Death-associated protein kinase 3 (Homo sapiens) (O43293 whole entry, looked up): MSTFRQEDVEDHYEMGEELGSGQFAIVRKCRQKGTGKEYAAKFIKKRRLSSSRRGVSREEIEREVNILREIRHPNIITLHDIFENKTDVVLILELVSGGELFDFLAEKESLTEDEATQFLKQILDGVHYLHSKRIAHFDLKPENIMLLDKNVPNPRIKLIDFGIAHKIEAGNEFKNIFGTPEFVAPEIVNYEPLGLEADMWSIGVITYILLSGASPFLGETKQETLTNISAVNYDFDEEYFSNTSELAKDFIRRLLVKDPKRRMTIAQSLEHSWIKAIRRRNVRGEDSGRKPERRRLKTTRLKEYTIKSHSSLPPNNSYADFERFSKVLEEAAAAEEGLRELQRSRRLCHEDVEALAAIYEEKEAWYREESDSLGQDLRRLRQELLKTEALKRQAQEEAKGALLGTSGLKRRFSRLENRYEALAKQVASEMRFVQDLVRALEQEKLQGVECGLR
Chain of Serine/threonine-protein kinase PknB (Mycobacterium tuberculosis) (P9WI81 whole entry): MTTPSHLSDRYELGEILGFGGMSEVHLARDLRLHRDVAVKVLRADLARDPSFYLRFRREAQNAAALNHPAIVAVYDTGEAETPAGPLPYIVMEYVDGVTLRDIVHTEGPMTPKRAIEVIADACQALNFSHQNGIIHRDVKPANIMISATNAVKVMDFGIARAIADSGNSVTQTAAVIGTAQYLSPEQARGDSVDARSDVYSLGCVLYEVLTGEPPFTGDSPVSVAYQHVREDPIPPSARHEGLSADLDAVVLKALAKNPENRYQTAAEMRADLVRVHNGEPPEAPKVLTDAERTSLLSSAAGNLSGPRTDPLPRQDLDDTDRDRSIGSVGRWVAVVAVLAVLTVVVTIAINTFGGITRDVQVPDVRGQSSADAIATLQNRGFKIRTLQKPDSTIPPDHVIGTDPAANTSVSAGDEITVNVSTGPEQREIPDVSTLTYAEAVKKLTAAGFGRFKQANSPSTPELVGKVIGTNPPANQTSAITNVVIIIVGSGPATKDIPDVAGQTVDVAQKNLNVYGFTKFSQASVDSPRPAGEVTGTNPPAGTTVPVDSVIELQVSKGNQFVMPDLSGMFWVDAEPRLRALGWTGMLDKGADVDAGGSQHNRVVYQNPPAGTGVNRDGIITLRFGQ
Chain of Sodium-dependent serotonin transporter (Homo sapiens) (P31645 whole entry, looked up): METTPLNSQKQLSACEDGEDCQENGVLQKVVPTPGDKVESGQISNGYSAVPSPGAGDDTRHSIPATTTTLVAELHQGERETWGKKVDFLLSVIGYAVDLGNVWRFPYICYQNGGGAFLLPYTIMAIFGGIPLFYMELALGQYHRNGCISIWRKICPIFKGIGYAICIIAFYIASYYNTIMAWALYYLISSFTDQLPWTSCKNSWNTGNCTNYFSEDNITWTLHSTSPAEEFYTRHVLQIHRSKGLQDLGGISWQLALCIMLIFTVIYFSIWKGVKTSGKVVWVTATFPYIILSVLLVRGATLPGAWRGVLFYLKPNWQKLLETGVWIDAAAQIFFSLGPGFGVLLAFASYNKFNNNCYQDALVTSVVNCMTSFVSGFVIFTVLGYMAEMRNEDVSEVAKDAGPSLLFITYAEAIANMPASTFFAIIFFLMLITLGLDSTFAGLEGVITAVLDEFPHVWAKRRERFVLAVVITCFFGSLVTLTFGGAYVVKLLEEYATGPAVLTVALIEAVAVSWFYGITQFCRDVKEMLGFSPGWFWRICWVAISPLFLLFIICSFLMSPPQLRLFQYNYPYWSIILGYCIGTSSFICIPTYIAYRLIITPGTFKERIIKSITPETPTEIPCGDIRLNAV

`O=C(N1CCS(=O)(=O)CC1)N1C[C@H](c2ccc(OC(F)(F)F)cc2)C[C@H](c2nc(C3CC3)no2)C1` [BAY-386] was tested, and the residual activity [1] was 98%, the residual activity [2] was 73% and the residual activity [3] was 0%. For the same compound, the residual activity [4] was 87%, the residual activity [5] was 100% and the residual activity [6] was 93%. It also gave a residual activity [7] of 98%, a residual activity [8] of 71% and a residual activity [9] of 100%. For the same compound, the residual activity [10] was 100%, the residual activity [11] was 100% and the residual activity [12] was 100%. For the same compound, the residual activity [13] was 100%, the residual activity [14] was 91% and the residual activity [15] was 81%. It also gave a residual activity [16] of 100%, a residual activity [17] of 100% and a residual activity [18] of 100%. It also gave a residual activity [19] of 100%, an inhibition [20] of 8.68% and a residual activity [21] of 100%. It also gave a residual activity [22] of 100%, a residual activity [23] of 100% and a residual activity [24] of 100%. The residual activity [25] was 100%, the residual activity [26] was 68% and the residual activity [27] was 100%. The residual activity [28] was 100%, the residual activity [29] was 100% and the residual activity [30] was 100%. The residual activity [31] was 100%, the residual activity [32] was 100% and the residual activity [33] was 100%. It also gave an inhibition [34] of 17.1%, a residual activity [35] of 100% and a residual activity [36] of 100%. For the same compound, the residual activity [37] was 100%, the residual activity [38] was 97% and the inhibition [39] was 5.17%. For the same compound, the residual activity [40] was 98%, the residual activity [41] was 92% and the residual activity [42] was 89%. It also gave a residual activity [43] of 100%, a residual activity [44] of 94% and a residual activity [45] of 100%.
`Cc1noc([C@H]2C[C@@H](c3ccc(C(F)(F)F)cc3)CN(C(=O)N3CCS(=O)(=O)C3)C2)n1` [BAY-448] was tested, and the residual activity [1] was 100%, the residual activity [2] was 100% and the residual activity [3] was 97%. For the same compound, the residual activity [4] was 90%, the residual activity [5] was 75% and the residual activity [6] was 100%. It also gave a residual activity [7] of 100%, a residual activity [8] of 100% and a residual activity [9] of 98%. The residual activity [10] was 100%, the residual activity [11] was 100% and the residual activity [12] was 100%. For the same compound, the residual activity [13] was 100%, the residual activity [14] was 92% and the residual activity [15] was 100%. It also gave a residual activity [16] of 89%, a residual activity [17] of 100% and a residual activity [18] of 82%. For the same compound, the residual activity [19] was 100%, the inhibition [20] was 5.57% and the residual activity [21] was 100%. The residual activity [22] was 86%, the residual activity [23] was 100% and the residual activity [24] was 100%. The residual activity [25] was 99%, the residual activity [26] was 100% and the residual activity [27] was 100%. It also gave a residual activity [28] of 89%, a residual activity [29] of 100% and a residual activity [30] of 100%. It also gave a residual activity [31] of 100%, a residual activity [32] of 100% and a residual activity [33] of 100%. The inhibition [34] was 16.8%, the residual activity [35] was 100% and the residual activity [36] was 100%. For the same compound, the residual activity [37] was 100%, the residual activity [38] was 100% and the inhibition [39] was -9.27%. For the same compound, the residual activity [40] was 100%, the residual activity [41] was 100% and the residual activity [42] was 100%. The residual activity [43] was 100%, the residual activity [44] was 95% and the residual activity [45] was 100%.
